Source: US9169252B2 (BRISTOL-MYERS SQUIBB COMPANY, priority 2014, dated 2015)
Like-named read-outs stand apart in the source and are kept apart here.

Columns and labels:
[1] = test system: TLR2 induced IL-6 in peripheral blood mononuclear cells (PBMCs); assay: PBMC TLR2 Induced IL-6 Assay; type: cell-based, human; conditions: IL-6 by ELISA; for IC50: read-out: Cell IC50; for EC50: read-out: Cell EC50
Procedure, shortened: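 Lipoteichoic acid at 10 µg/ml served as TLR2 stimulus for 5 hours, following a 30-minute compound pretreatment at 37° C. Cells were Ficoll-isolated human PBMCs, 250000 cells/well, cultured in RPMI plus 10% heat-inactivated FCS.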

IRAK4 = IRAK4 (Homo sapiens (Human), UniProt Q9NWZ3); assay: IRAK4 Inhibition Assay; type: biochemical; conditions: ATP 500 μM, read-out: IRAK4 IC50
IRAK4, sequence (Q9NWZ3 whole entry, species assumed): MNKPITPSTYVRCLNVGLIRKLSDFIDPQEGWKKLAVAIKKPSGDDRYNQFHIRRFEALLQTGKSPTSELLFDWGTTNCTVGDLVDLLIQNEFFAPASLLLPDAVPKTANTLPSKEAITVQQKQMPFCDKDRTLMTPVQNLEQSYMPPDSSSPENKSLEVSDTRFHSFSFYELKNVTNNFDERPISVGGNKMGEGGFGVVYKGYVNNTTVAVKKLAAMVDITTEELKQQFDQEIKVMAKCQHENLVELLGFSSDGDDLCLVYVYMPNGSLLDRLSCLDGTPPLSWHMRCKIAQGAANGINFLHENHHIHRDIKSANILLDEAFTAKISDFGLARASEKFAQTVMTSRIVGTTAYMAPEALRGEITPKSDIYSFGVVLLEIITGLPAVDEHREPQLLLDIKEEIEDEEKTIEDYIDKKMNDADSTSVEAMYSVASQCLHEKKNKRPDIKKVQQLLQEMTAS
Protocol: The assays were performed in U-bottom 384-well plates. […] The reaction was initiated by the combination of IRAK4 with substrates and test compounds. The reaction mixture was incubated at room temperature for 60 min. and terminated by adding 45 μL of 35 mM EDTA to each sample. The reaction mixture was analyzed on the Caliper LABCHIP® 3000 (Caliper, Hopkinton, Mass.) by electrophoretic separation of the fluorescent substrate and phosphorylated product.

[2] = Homo sapiens, PBMC, PBMC TLR2 Induced IL-6 Assay, lipoteichoic acid stimulation
[3] = Homo sapiens, PBMC, human PBMCs, lipoteichoic acid stimulated

Row | SMILES | IC50 (IRAK4; IRAK4 Inhibition Assay) [nM] | IC50 (IRAK4; IRAK4 0.6 nM) [nM] | IC50 [1, 3] [nM] | further results
1 | CC(C)(O)[C@H](F)CNC(=O)c1cnc(-n2ncc3cc(C#N)cnc32)cc1NC1CCC(F)CC1 (stereo partly drawn) [Example 163, (R)-6-(5-cyano-1H-pyrazolo[3,4-b]pyridin-1-yl)-N-(2-fluoro-3-hydroxy-3-methylbutyl)-4-((4-fluorocyclohexyl)amino)nicotinamide] | 3 | – | – | EC50 [1, 2]: 81 nM
2 | CC(C)Nc1cc(-n2ncc3cc(C#N)cnc32)ncc1C(=O)Nc1cc2cc[nH]c2cn1 [Example 223] | 4 | – | – | IC50 [1, 2]: 178 nM
3 | CC(C)Nc1cc(-n2ncc3cc(Cl)cnc32)ncc1C(=O)NC[C@@H](F)C(C)(C)F [Example 330] | 4.3 | – | – | IC50 [1, 2]: 512 nM
4 | CC(C)(O)[C@H](F)CNC(=O)c1cnc(-n2ncc3cc(C#N)cnc32)cc1N[C@H]1CC[C@H](NC(=O)C2CC2)CC1 [Example 623] | – | 5.2 | 484 | –
5 | CC(C)(O)[C@H]1CC[C@H](NC(=O)c2cnc(-n3ncc4cc(C#N)cnc43)cc2Nc2cnn(CC(F)F)c2)CC1 [Example 396] | – | 8.6 | 157 | –
6 | CC(C)(O)[C@H](F)CNC(=O)c1cnc(-n2ncc3cc(C#N)cnc32)cc1Nc1ccn(CC(F)(F)F)n1 [Example 408] | – | 1.8 | 73 | –
7 | CC(C)(O)[C@H](F)CNC(=O)c1cnc(-n2ncc3cc(C#N)cnc32)cc1Nc1cnn(-c2ncccn2)c1 [Example 410] | – | 1.5 | – | EC50 [1, 3]: 92 nM
8 | CC(C)(O)[C@H](F)CNC(=O)c1cnc(-n2ncc3cc(C#N)cnc32)cc1NCCOC(F)F [Example 598] | – | 16.6 | 54 | –
9 | CC(C)Nc1cc(-n2ccc3cc(C#N)cnc32)ncc1C(=O)N[C@H]1CC[C@](O)(c2nccn2C)CC1 [Example 176, 6-(5-cyano-1H-pyrrolo[2,3-b]pyridin-1-yl)-N-((1 s,4s)-4-hydroxy-4-(1-methyl-1H-imidazol-2-yl)cyclohexyl)-4-(isopropylamino) nicotinamide] | 6.4 | – | – | EC50 [1, 2]: 476 nM
10 | CC(C)(O)[C@H](F)CNC(=O)c1cnc(-n2ncc3cc(C#N)cnc32)cc1N[C@@H]1C[C@H]1CO (single isomer, unassigned) [Example 642] | – | 4.8 | 197 | –
11 | CC(C)Nc1cc(-n2ncc3cc(C#N)cnc32)ncc1C(=O)NCCC(C)(F)F [Example 332] | 13 | – | – | IC50 [1, 2]: 159 nM
12 | CC(C)Nc1cc(-n2ncc3cc(C#N)c(N)nc32)ncc1C(=O)NC1C=CCC1 (stereo not shown) [Example 327] | 11.1 | – | – | IC50 [1, 2]: 181 nM
13 | CC(C)Nc1cc(-n2ncc3cc(C#N)cnc32)ncc1C(=O)NC[C@@H](F)C(=O)N1CCN(S(C)(=O)=O)CC1 [Example 257] | 8.9 | – | – | EC50 [1, 2]: 136 nM
14 | CC(C)(O)[C@H](F)CNC(=O)c1cnc(-n2ccc3cc(C#N)cnc32)cc1Nc1ccc2nc[nH]c2c1 [Example 439] | – | 2.6 | – | EC50 [1, 3]: 73 nM
15 | CC(C)Nc1cc(-n2ccc3cnc(N4CC[C@@H](O)C4)nc32)ncc1C(=O)NC[C@@H](F)C(C)(C)O [Example 190, N—((R)-2-fluoro-3-hydroxy-3-methylbutyl)-6-(2-((R)-3-hydroxypyrrolidin-1-yl)-7H-pyrrolo[2,3-d]pyrimidin-7-yl)-4-(isopropylamino)nicotinamide] | 4.7 | – | – | EC50 [1, 2]: 120 nM
16 | CC1(Nc2cc(-n3ccc4cc(C#N)cnc43)ncc2C(=O)NC[C@@H](F)C(C)(C)O)CC1 [Example 17, (R)-6-(5-cyano-1H-pyrrolo[2,3-b]pyridin-1-yl)-N-(2-fluoro-3-hydroxy-3-methylbutyl)-4-((1-methylcyclopropyl)amino)nicotinamide] | 1.2 | – | – | EC50 [1, 2]: 42 nM
17 | CC(C)(F)CCNc1cc(-n2ncc3cc(C#N)c(N)nc32)ncc1C(=O)NC[C@@H](F)C(C)(C)O [Example 599] | – | 4.8 | 275 | –
18 | CC(C)(O)[C@H](F)CNC(=O)c1cnc(-n2ncc3cc(C#N)cnc32)cc1NCCC(F)(F)F [Example 563, (R)-6-(5-Cyano-1H-pyrazolo[3,4-b]pyridin-1-yl)-N-(2-fluoro-3-hydroxy-3-methylbutyl)-4-((3,3,3-trifluoropropyl)amino)nicotinamide] | – | 5 | – | EC50 [1, 3]: 159 nM
19 | CC(=O)Nc1ccc(CCNC(=O)c2cnc(-n3ncc4cc(C#N)cnc43)cc2NC(C)C)cc1 [Example 270] | 1.6 | – | – | IC50 [1, 2]: 348 nM

The next lines start with results.

Row | IC50 (IRAK4; IRAK4 Inhibition Assay) [nM] | IC50 (IRAK4; IRAK4 0.6 nM) [nM] | SMILES | IC50 [1, 3] [nM] | further results
20 | 1 | – | CC(C)(C)Nc1cc(-n2ncc3cc(C#N)c(N)nc32)ncc1C(=O)NC[C@@H](F)C(C)(C)O [Example 293] | – | IC50 [1, 2]: 32 nM
21 | – | 6.2 | CC(C)(O)[C@H]1CC[C@H](NC(=O)c2cnc(-n3ncc4cc(Cl)cnc43)cc2NC2COC2)CC1 [Example 556] | 305 | –
22 | – | 3 | CC(C)(F)[C@H](F)CNC(=O)c1cnc(-n2ncc3cc(C#N)cnc32)cc1NC12CC3CC(CC(O)(C3)C1)C2 [Example 636] | 293 | –
23 | – | 3.3 | CC(C)(O)[C@H](F)CNC(=O)c1cnc(-n2ncc3cc(C#N)cnc32)cc1N[C@H]1CC[C@H](NC(=O)C(F)F)CC1 [Example 633] | 257 | –
24 | – | 1.5 | C[C@@H](F)CNc1cc(-n2ccc3cc(C#N)cnc32)ncc1C(=O)NC[C@@H](F)C(C)(C)O [Example 506] | 65 | –
25 | 4.1 | – | CC(C)Nc1cc(-n2ccc3cc(C#N)cnc32)ncc1C(=O)NCCNS(C)(=O)=O [Example 63, 6-(5-cyano-1H-pyrrolo[2,3-b]pyridin-1-yl)-4-(isopropylamino)-N-(2-(methylsulfonamido)ethyl)nicotinamide] | – | EC50 [1, 2]: 12 nM
26 | 2.9 | – | CC(CF)Nc1cc(-n2ccc3cc(C#N)cnc32)ncc1C(=O)NC[C@@H](F)C(C)(C)O (stereo partly drawn) [Example 78, 6-(5-cyano-1H-pyrrolo[2,3-b]pyridin-1-yl)-N—((R)-2-fluoro-3-hydroxy-3-methylbutyl)-4-((1-fluoropropan-2-yl)amino)nicotinamide] | – | IC50 [1, 2]: 63 nM
27 | 2.4 | – | CC(C)Nc1cc(-n2ncc3cc(C#N)cnc32)ncc1C(=O)NCCC(C)NS(C)(=O)=O (stereo not shown) [Example 265] | – | IC50 ([1]; PBMC TLR2 Induced IL-6 Assay, lipoteichoic acid stimulation): 241 nM
28 | 3.6 | – | CC(C)Nc1cc(-n2ncc3cc(C#N)cnc32)ncc1C(=O)NCCC1(O)CCCC1 [Example 252] | – | IC50 [1, 2]: 197 nM
29 | 6.7 | – | CC(=O)OC(C)(C)C(=O)NCCNC(=O)c1cnc(-n2ccc3cc(C#N)cnc32)cc1NC(C)C [Example 125, 1-((2-(6-(5-Cyano-1H-pyrrolo[2,3-b]pyridin-1-yl)-4-(isopropylamino)nicotinamido)ethyl)amino)-2-methyl-1-oxopropan-2-yl acetate] | – | EC50 [1, 2]: 202 nM
30 | 2.6 | – | CC(C)(O)CNc1cc(-n2ccc3cc(C#N)cnc32)ncc1C(=O)NC[C@@H](F)C(C)(C)O [Example 77, (R)-6-(5-cyano-1H-pyrrolo[2,3-b]pyridin-1-yl)-N-(2-fluoro-3-hydroxy-3-methylbutyl)-4-((2-hydroxy-2-methylpropyl)amino)nicotinamide] | – | IC50 [1, 2]: 161 nM
31 | 4.2 | – | CC(C)Nc1cc(-n2ccc3cncnc32)ncc1C(=O)NCCC(C)(C)O [Example 44, N-(3-hydroxy-3-methylbutyl)-4-(isopropylamino)-6-(7H-pyrrolo[2,3-d]pyrimidin-7-yl)nicotinamide] | – | EC50 [1, 2]: 98 nM
32 | 8.9 | – | COC[C@H](F)CNC(=O)c1cnc(-n2ncc3cc(C#N)cnc32)cc1NC(C)C [Example 128, (R)-6-(5-Cyano-1H-pyrazolo[3,4-b]pyridin-1-yl)-N-(2-fluoro-3-methoxypropyl)-4-(isopropylamino)nicotinamide] | – | EC50 [1, 2]: 248 nM
